In patent US10040781B2, “Tank-binding kinase inhibitor compounds” (Gilead Sciences, Inc., priority 2014, dated 2018):

What was measured:
hJAK2 = hJAK2 (Homo sapiens (Human), UniProt O60674); assay: hJAK2 LANCE TR-FRET enzymatic assay; assay type: biochemical; settings: read-out: JAK2 IC50
IKKε = IKKε (Homo sapiens (Human), UniProt Q14164); assay: IKKε TR-FRET enzymatic assay; assay type: biochemical; settings: TR-FRET, 2×Km ATP; geometric mean of minimum four determinations; read-out: IKKe IC50
Sequence of IKKε (Q14164 whole entry): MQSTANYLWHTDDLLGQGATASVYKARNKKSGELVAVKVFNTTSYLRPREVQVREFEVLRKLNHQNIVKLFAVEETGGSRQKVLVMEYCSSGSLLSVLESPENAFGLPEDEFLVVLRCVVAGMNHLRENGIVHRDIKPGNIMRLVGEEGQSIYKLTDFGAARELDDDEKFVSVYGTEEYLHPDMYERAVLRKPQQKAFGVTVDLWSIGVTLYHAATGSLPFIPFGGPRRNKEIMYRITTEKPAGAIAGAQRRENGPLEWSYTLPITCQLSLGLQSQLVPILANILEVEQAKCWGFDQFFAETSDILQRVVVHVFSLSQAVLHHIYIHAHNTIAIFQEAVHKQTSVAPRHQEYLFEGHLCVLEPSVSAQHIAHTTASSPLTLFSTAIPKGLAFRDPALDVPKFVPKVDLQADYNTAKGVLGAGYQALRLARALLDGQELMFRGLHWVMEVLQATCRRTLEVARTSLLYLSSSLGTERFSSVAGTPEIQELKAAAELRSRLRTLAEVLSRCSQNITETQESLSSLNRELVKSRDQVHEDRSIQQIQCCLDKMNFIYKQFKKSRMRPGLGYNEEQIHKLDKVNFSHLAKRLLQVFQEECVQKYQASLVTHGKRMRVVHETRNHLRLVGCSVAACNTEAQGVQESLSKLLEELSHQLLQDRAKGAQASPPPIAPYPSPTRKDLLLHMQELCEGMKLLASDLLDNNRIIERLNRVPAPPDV

TBK1 = TBK1 (Homo sapiens (Human), UniProt Q9UHD2); assay: TBK1 TR-FRET enzymatic assay;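 note: phosphorylation of a biotinylated Ser/Thr peptide by purified full-length recombinant TBK1, read by TR-FRET after 240 min at 25 °C, IC50 is the geometric mean of at least four runs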
Sequence of TBK1 (Q9UHD2 whole entry): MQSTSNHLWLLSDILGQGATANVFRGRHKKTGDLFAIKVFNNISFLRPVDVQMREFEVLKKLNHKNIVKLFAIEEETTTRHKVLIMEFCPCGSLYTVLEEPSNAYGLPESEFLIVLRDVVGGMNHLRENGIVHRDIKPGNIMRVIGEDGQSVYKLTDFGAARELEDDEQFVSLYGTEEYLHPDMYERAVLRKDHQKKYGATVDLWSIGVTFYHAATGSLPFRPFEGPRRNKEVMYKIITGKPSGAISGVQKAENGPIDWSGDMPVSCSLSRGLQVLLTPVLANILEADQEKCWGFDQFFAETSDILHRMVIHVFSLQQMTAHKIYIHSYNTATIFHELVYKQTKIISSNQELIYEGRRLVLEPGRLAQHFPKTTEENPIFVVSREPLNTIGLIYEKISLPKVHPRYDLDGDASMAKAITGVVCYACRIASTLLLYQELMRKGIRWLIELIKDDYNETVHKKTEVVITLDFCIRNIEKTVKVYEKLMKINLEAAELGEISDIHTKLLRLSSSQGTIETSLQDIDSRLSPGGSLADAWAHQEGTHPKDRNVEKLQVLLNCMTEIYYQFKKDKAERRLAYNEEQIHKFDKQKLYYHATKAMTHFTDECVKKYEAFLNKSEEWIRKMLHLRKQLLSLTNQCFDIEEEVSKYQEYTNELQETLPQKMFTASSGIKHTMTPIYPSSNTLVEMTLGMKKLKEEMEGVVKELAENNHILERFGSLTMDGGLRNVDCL

Sequence of hJAK2 (O60674 whole entry): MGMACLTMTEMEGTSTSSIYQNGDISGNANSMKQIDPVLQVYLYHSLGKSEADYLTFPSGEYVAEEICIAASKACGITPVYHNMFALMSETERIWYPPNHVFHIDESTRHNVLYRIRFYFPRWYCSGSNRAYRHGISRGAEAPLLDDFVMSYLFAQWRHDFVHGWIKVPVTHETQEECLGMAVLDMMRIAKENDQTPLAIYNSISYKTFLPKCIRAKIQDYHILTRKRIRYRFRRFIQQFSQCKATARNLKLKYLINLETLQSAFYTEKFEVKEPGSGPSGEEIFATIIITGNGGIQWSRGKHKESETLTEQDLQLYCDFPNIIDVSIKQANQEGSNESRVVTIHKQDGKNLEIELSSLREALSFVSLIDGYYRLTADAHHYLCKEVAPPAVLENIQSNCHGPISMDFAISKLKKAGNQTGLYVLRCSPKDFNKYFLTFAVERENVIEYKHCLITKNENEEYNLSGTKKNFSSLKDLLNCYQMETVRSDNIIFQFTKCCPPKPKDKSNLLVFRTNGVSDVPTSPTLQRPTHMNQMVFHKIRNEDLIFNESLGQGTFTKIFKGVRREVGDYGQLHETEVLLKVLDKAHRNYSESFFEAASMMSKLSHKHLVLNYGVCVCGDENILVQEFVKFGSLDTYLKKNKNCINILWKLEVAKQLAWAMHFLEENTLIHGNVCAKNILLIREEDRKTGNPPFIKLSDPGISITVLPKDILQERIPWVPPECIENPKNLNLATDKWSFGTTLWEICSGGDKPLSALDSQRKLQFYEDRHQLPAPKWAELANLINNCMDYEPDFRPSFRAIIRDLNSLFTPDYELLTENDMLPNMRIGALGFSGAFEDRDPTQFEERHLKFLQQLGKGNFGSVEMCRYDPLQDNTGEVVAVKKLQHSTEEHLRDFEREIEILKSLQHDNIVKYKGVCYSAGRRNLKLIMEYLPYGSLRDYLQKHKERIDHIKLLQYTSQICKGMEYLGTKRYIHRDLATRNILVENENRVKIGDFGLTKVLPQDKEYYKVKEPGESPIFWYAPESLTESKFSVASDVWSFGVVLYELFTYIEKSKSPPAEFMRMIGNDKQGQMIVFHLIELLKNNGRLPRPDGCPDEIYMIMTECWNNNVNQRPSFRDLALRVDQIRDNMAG

IC50 (hJAK2) [nM] | IC50 (IKKε) [nM] | IC50 (TBK1) [nM] | Compound
18 | 1 | 2 | COc1cc(Nc2ncnc(-c3ccc(O[C@H]4CCN(C(=O)CO)CC4(F)F)c(C#N)c3)n2)ccc1N1CCN(C2COC2)CC1 [Example 560, (S)-2-((3,3-difluoro-1-(2-hydroxyacetyl)piperidin-4-yl)oxy)-5-(4-((3-methoxy-4-(4-(oxetan-3-yl)piperazin-1-yl)phenyl)amino)-1,3,5-triazin-2-yl)benzonitrile]
68 | 1 | 2 | COc1cc(Nc2ncnc(-c3ccc(O[C@H]4CCN(C(=O)[C@H](C)O)CC4(F)F)c(C#N)c3)n2)ccc1N1CCN(C2COC2)CC1 [Example 561, 2-(((S)-3,3-difluoro-1-((S)-2-hydroxypropanoyl)piperidin-4-yl)oxy)-5-(4-((3-methoxy-4-(4-(oxetan-3-yl)piperazin-1-yl)phenyl)amino)-1,3,5-triazin-2-yl)benzonitrile]
110 | 6 | 3 | COc1cc(Nc2ncnc(-c3ccc(O[C@H]4CCN(C(=O)CCO)C[C@H]4F)c(C#N)c3)n2)ccc1N1CCN(C2COC2)CC1 [Example 562, 2-(((3R,4S)-3-fluoro-1-(3-hydroxypropanoyl)piperidin-4-yl)oxy)-5-(4-((3-methoxy-4-(4-(oxetan-3-yl)piperazin-1-yl)phenyl)amino)-1,3,5-triazin-2-yl)benzonitrile]
≥ 1000 | 3 | 5 | Cc1ncsc1Nc1ncnc(-c2ccc(O[C@H]3CCN(C(=O)CO)C[C@H]3F)c(C#N)c2)n1 [Example 563, 2-(((3R,4S)-3-fluoro-1-(2-hydroxyacetyl)piperidin-4-yl)oxy)-5-(4-((4-methylthiazol-5-yl)amino)-1,3,5-triazin-2-yl)benzonitrile]
≥ 1000 | 109 | 92 | C[C@H](O)C(=O)N1CC[C@H](Oc2ccc(-c3ncnc(Nc4cn(C)nc4CO)n3)cc2C#N)[C@H](F)C1 [Example 564, 2-(((3R,4S)-3-fluoro-1-((S)-2-hydroxyproanoyl)piperidin-4-yl)oxy)-5-(4-((3-(hydroxymethyl)-1-methyl-1H-pyrazol-4-yl)amino)-1,3,5-triazin-2-yl)benzonitrile]
≥ 1000 | 126 | 90 | C[C@H](O)C(=O)N1CC[C@H](Oc2ccc(-c3ncnc(Nc4cnn(C)c4CO)n3)cc2C#N)[C@H](F)C1 [Example 565, 2-(((3R,4S)-3-fluoro-1-((S)-2-hydroxypropanoyl)piperidin-4-yl)oxy)-5-(4-((5-(hydroxymethyl)-1-methyl-1H-pyrazol-4-yl)amino)-1,3,5-triazin-2-yl)benzonitrile]
≥ 1000 | 33 | 14 | Cc1c(Nc2ncnc(-c3ccc(O[C@H]4CCN(C(=O)[C@H](C)O)C[C@H]4F)c(C#N)c3)n2)cnn1C [Example 566, 5-(4-((1,5-dimethyl-1H-pyrazol-4-yl)amino)-1,3,5-triazin-2-yl)-2-(((3R,4S)-3-fluoro-1-((S)-2-hydroxypropanoyl)piperidin-4-yl)oxy)benzonitrile]
≥ 1000 | 7 | 3 | Cc1c(Nc2ncnc(-c3ccc(O[C@H]4CCN(C(=O)[C@@H](O)CO)C[C@H]4F)c(C#N)c3)n2)cnn1C [Example 567, 2-(((3R,4S)-1-((S)-2,3-dihydroxypropanoyl)-3-fluoropiperidin-4-yl)oxy)-5-(4-((1,5-dimethyl-1H-pyrazol-4-yl)amino)-1,3,5-triazin-2-yl)benzonitrile]
≥ 1000 | 21 | 9 | CCn1cc(Nc2ncnc(-c3ccc(O[C@H]4CCN(C(=O)[C@H](C)O)C[C@H]4F)c(C#N)c3)n2)c(C)n1 [Example 568, 5-(4-((1-ethyl-3-methyl-1H-pyrazol-4-yl)amino)-1,3,5-triazin-2-yl)-2-(((3R,4S)-3-fluoro-1-((S)-2-hydroxypropanoyl)piperidin-4-yl)oxy)benzonitrile]
≥ 1000 | 6 | 4 | CCn1cc(Nc2ncnc(-c3ccc(O[C@H]4CCN(C(=O)CO)C[C@H]4F)c(C#N)c3)n2)c(C)n1 [Example 569, 5-(4-((1-ethyl-3-methyl-1H-pyrazol-4-yl)amino)-1,3,5-triazin-2-yl)-2-(((3R,4S)-3-fluoro-1-(2-hydroxyacetyl)piperidin-4-yl)oxy)benzonitrile]
≥ 1000 | 11 | 6 | Cc1nc(C)c(Nc2ncnc(-c3ccc(O[C@H]4CCN(C(=O)[C@H](C)O)C[C@H]4F)c(C#N)c3)n2)s1 [Example 571, 5-(4-((2,4-dimethylthiazol-5-yl)amino)-1,3,5-triazin-2-yl)-2-(((3R,4S)-3-fluoro-1-((S)-2-hydroxypropanoyl)piperidin-4-yl)oxy)benzonitrile]
≥ 1000 | 21 | 36 | C[C@H](O)C(=O)N1CC[C@H](Oc2ccc(-c3ncnc(Nc4scnc4CO)n3)cc2C#N)[C@H](F)C1 [Example 572, 2-(((3R,4S)-3-fluoro-1-((S)-2-hydroxypropanoyl)piperidin-4-yl)oxy)-5-(4-((4-(hydroxymethyl)thiazol-5-yl)amino)-1,3,5-triazin-2-yl)benzonitrile]
969 | 1 | 3 | C[C@H](O)CN1CCN(c2ccc(Nc3ncnc(-c4ccc(O[C@H]5CCN(C(=O)[C@H](C)O)C[C@H]5F)c(C#N)c4)n3)cc2)CC1 [Example 573, 2-(((3R,4S)-3-fluoro-1-((S)-2-hydroxypropanoyl)piperidin-4-yl)oxy)-5-(4-((4-(4-((S)-2-hydroxypropyl)piperazin-1-yl)phenyl)amino)-1,3,5-triazin-2-yl)benzonitrile]
354 | 2 | 2 | CC(C)n1cc(Nc2ncnc(-c3ccc(O[C@H]4CCN(C(=O)[C@@H](O)CO)C[C@H]4F)c(C#N)c3)n2)cn1 [Example 574, 2-(((3R,4S)-1-((S)-2,3-dihydroxypropanoyl)-3-fluoropiperidin-4-yl)oxy)-5-(4-((1-isopropyl-1H-pyrazol-4-yl)amino)-1,3,5-triazin-2-yl)benzonitrile]
165 | 1 | 2 | N#Cc1cc(-c2ncnc(Nc3ccc(N4CCN(C5COC5)CC4)cc3)n2)ccc1O[C@H]1CCN(C(=O)C(O)CO)CC1(F)F (stereo partly drawn) [Example 580, 2-(((4S)-1-(2,3-dihydroxypropanoyl)-3,3-difluoropiperidin-4-yl)oxy)-5-(4-((4-(4-(oxetan-3-yl)piperazin-1-yl)phenyl)amino)-1,3,5-triazin-2-yl)benzonitrile]
86 | 1 | 2 | N#Cc1cc(-c2ncnc(Nc3ccc(N4CCN(C5COC5)CC4)cc3)n2)ccc1O[C@H]1CCN(C(=O)[C@@H](O)CO)CC1(F)F [Example 581, 2-(((S)-1-((S)-2,3-dihydroxypropanoyl)-3,3-difluoropiperidin-4-yl)oxy)-5-(4-((4-(4-(oxetan-3-yl)piperazin-1-yl)phenyl)amino)-1,3,5-triazin-2-yl)benzonitrile]
98 | 1 | 2 | N#Cc1cc(-c2ncnc(Nc3ccc(N4CCN(C5COC5)CC4)cc3)n2)ccc1O[C@H]1CCN(C(=O)[C@H](O)CO)CC1(F)F [Example 582, 2-(((S)-1-((R)-2,3-dihydroxypropanoyl)-3,3-difluoropiperidin-4-yl)oxy)-5-(4-((4-(4-(oxetan-3-yl)piperazin-1-yl)phenyl)amino)-1,3,5-triazin-2-yl)benzonitrile]
479 | 1 | 2 | C[C@H](O)C(=O)N1CC[C@H](Oc2ccc(-c3ncnc(Nc4ccc(N5CCN(CCO)CC5)cc4)n3)cc2C#N)[C@H](F)C1 [Example 583, 2-(((3R,4S)-3-fluoro-1-((S)-2-hydroxypropanoyl)piperidin-4-yl)oxy)-5-(4-((4-(4-(2-hydroxyethyl)piperazin-1-yl)phenyl)amino)-1,3,5-triazin-2-yl)benzonitrile]
433 | 1 | 2 | N#Cc1cc(-c2ncnc(Nc3ccc(N4CCN(C5COC5)CC4)cc3)n2)ccc1O[C@H]1CCN(C(=O)[C@@H](O)CO)C[C@H]1F [Example 584, 2-(((3R,4S)-1-((S)-2,3-dihydroxypropanoyl)-3-fluoropiperidin-4-yl)oxy)-5-(4-((4-(4-(oxetan-3-yl)piperazin-1-yl)phenyl)amino)-1,3,5-triazin-2-yl)benzonitrile]
294 | 3 | 2 | N#Cc1cc(-c2ncnc(Nc3ccc(N4CCN(C5COC5)CC4)cc3)n2)ccc1O[C@H]1CCN(C(=O)[C@H](O)CO)C[C@H]1F [Example 585, 2-(((3R,4S)-1-((R)-2,3-dihydroxypropanoyl)-3-fluoropiperidin-4-yl)oxy)-5-(4-((4-(4-(oxetan-3-yl)piperazin-1-yl)phenyl)amino)-1,3,5-triazin-2-yl)benzonitrile]
212 | 28 | 11 | CC(C#N)C(=O)N1CC[C@H](Oc2ccc(-c3ncnc(Nc4ccc(N5CCN(C6COC6)CC5)cc4)n3)cc2C#N)[C@H](F)C1 (stereo partly drawn) [Example 586, 2-(((3R,4S)-1-(2-cyanopropanoyl)-3-fluoropiperidin-4-yl)oxy)-5-(4-((4-(4-(oxetan-3-yl)piperazin-1-yl)phenyl)amino)-1,3,5-triazin-2-yl)benzonitrile]

Compound | IC50 (hJAK2) [nM] | IC50 (IKKε) [nM] | IC50 (TBK1) [nM]
Cc1ncc(Nc2ncnc(-c3ccc(O[C@H]4CCN(C(=O)[C@H](C)O)C[C@H]4F)c(C#N)c3)n2)s1 [Example 570, 2-(((3R,4S)-3-fluoro-1-((S)-2-hydroxypropanoyl)piperidin-4-yl)oxy)-5-(4-((2-methylthiazol-5-yl)amino)-1,3,5-triazin-2-yl)benzonitrile] | ≥ 1000 | 4 | 3
